Reference: patent publication US5486597A, “Tetrapeptide derivatives and analogues” (James Black Foundation Limited, priority 1990, dated 1996)
Non-standard residues stand in square brackets, D forms with d. Residues, ends and D or L forms follow the SMILES beside them. *: point of attachment. Trp(5-F) = N[C@@H](Cc1c[nH]c2ccc(F)cc12)C(=O)O; 2Nal = N[C@@H](Cc1ccc2ccccc2c1)C(=O)O; Boc = CC(C)(C)OC(=O)*

Experiments:
Assay type in all cases: cell-based
[1] = target: T1, gastrin receptor (Cavia porcellus, UniProt H0VZC5); assay: guinea-pig fundus assay for gastrin activity (stomach muscle strips); conditions: 10^-8 M devazepide present, 60 minute equilibration, agonist e.g. pentagastrin, standard errors less than 5%
T1 construct: Strips of muscle (approximately 2.5 cm by 1 cm) are removed from the proximal area of the stomach; from tissue; host or cells: guinea-pig proximal stomach (fundus) muscle strips
T1 sequence (H0VZC5 1-426): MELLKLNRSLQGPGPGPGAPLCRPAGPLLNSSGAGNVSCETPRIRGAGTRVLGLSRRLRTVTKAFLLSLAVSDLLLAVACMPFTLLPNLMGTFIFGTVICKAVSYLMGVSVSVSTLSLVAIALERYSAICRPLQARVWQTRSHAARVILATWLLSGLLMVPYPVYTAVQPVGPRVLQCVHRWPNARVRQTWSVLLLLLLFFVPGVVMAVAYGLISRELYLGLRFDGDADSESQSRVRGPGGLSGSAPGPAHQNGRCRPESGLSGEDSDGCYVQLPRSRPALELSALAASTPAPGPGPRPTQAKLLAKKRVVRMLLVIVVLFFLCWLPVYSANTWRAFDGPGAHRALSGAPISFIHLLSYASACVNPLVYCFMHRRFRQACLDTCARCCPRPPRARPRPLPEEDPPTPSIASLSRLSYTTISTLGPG
Outline: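 Proximal stomach muscle strips from male Dunkin-Hartley guinea-pigs were mounted on isotonic transducers at 0.35 g in gassed Krebs containing 10^-8 M devazepide to block CCK receptors, with 10 mM KCl added. Test compounds were equilibrated 60 min before cumulative pentagastrin dose-response curves were run.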

[2] = target: T2, gastrin receptor (Mus musculus, UniProt P56481); assay: mouse stomach assay for gastrin activity (isolated stomach, acid secretion); conditions: for Kb: read-out: pKB mouse stomach (converted); for Acid seretion at 10^-5 M test compound, relative to pentagastrin (%): mouse stomach, NS = not significant
T2 construct: assayed for gastrin activity using the mouse stomach assay; from tissue; host or cells: isolated mouse stomach
T2 sequence (P56481 1-453): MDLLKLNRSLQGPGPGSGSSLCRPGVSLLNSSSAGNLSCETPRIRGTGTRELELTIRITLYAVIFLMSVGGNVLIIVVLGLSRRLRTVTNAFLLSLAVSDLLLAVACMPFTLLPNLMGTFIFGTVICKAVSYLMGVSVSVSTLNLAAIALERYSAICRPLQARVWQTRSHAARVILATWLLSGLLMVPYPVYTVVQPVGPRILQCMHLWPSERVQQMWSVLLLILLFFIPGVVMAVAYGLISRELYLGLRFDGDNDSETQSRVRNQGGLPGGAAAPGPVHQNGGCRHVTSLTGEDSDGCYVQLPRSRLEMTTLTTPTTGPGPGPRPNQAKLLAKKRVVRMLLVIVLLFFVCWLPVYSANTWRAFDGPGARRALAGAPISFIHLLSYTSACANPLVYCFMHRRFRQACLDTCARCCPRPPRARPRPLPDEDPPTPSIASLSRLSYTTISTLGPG
Description: The compounds were assayed for gastrin activity using the mouse stomach assay as described by Black, J. W. and Shankley, N. P., Br. J. Pharmacol., 86, 571-579, (1985), and also in the guinea-pig fundus assay, as follows: […]

[3] = target: T3, cholecystokinin receptors (Cavia porcellus, UniProt Q63931); assay: CCK-antagonist activity in isolated guinea-pig gall-bladder strip preparations; conditions: guinea-pig gall-bladder strips; CCK-8 as agonist; test compound incubated for 60 minutes; standard errors less than 5%
T3 construct: Isolated, strip preparations were prepared from gall-bladders removed from male Dunkin-Hartley guinea-pigs; from tissue; host or cells: guinea-pig gall-bladder strips
T3 sequence (Q63931 1-430): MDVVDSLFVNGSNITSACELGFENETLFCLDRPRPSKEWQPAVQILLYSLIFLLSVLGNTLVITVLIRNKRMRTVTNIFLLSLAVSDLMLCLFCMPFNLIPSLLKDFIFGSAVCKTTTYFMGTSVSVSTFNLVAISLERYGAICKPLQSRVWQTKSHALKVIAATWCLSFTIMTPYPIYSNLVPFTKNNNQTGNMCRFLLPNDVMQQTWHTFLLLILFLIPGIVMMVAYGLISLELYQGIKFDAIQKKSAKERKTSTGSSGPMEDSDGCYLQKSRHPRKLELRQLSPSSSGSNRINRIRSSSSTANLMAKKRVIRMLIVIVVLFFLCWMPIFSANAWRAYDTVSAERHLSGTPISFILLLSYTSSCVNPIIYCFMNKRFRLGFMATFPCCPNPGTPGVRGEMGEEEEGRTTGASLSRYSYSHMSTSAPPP
Outline: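 Male Dunkin-Hartley guinea-pig gall-bladder strips under 1 g isometric tension in Krebs (0.5 mM Ca²⁺), 37° C, 95% O2/5% CO2, stabilised 90 min. Cumulative CCK-8 concentration-effect curves without and with test compound (60 min preincubation); antagonism expressed as […] by modified competitive analysis.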

[4] = isolated mouse stomach assay, gastrin antagonism, standard errors less than 5%

COc1ccc2[nH]cc(CC(NC(=O)OC(C)(C)C)C(=O)N[C@@H](Cc3ccc4ccccc4c3)C(=O)N[C@@H](CC(=O)O)C(=O)N[C@@H](Cc3ccccc3)C(N)=O)c2c1 (mixture of isomers) [Example 19, N-t-Butyloxycarbonyl-5-methoxy-D,L-tryptophyl-L-3-(2-naphthyl)alanyl-L-aspartyl-L-phenylalaninamide]
Kb [1]: 1580 nM | Kb [2, 4]: 5010 nM | Acid seretion at 10^-5 M test compound, relative to pentagastrin (%) [2]: 80% | Kb [3]: 501 nM

COc1ccc(C[C@H](NC(=O)[C@H](CC(=O)O)NC(=O)[C@H](Cc2ccc3ccccc3c2)NC(=O)[C@H](Cc2c[nH]c3ccccc23)NC(=O)OC(C)(C)C)C(N)=O)cc1 [Example 7, N-t-Butyloxycarbonyl-L-tryptophyl-L-3-(2-naphthyl)alanyl-L-aspartyl-L-(4-methoxyphenylalanin)amide] (Boc-W[2Nal]DY(Me)-NH2)
pKB [1]: 5.3 | pKB mouse stomach [2, 4]: 5.7 | pKB [3]: 5.8

CC(C)(C)OC(=O)N[C@@H](Cc1c[nH]c2ccc(F)cc12)C(=O)N[C@@H](Cc1ccc2ccccc2c1)C(=O)N[C@@H](CC(=O)O)C(=O)N[C@@H](Cc1ccccc1)C(N)=O [Example 18, N-t-Butyloxycarbonyl-5-fluoro-L-tryptophyl-L-3-(2-naphthyl)alanyl-L-aspartyl-L-phenylalaninamide] (Boc-[Trp(5-F)][2Nal]DF-NH2)
Kb [1]: 1260 nM | Kb [2, 4]: 1580 nM | Acid seretion at 10^-5 M test compound, relative to pentagastrin (%) [2]: 54% | Kb [3]: 631 nM
